Test results: a melting point compilation (Tetko et al.; mined from patent text by program, amines drawn as free bases though some values may be those of a salt)

| Compound | melting point |
| --- | --- |
| COc1cc(OC)c(CSC(C)(C)CC(=O)O)c(OC)c1 | 103 to 105 °C |
| COc1ccc(Cn2c(=O)[nH]c3ccc(C(=O)NCc4ccc5c(c4)OCO5)cc3c2=O)cc1 | 252 °C |
| CC(C)n1nc(-c2c(-c3ccccc3)nn3ccc(C(=O)N4CCC(c5ccccc5)CC4)cc23)ccc1=O | 184 to 185 °C |
| COc1cc2c3ccc(OC)c(OC)c3n(C(=O)c3ccc(-c4ccccc4)cc3)c2cc1OC | 150 to 153 °C |
| CN(c1ccccc1)c1nc(N)nc2nc[nH]c12 | 147 to 152 °C |
| C=C1C[C@]2(C)C(=O)CC[C@H]2[C@@H]2CCC3=CC(=O)CC[C@]3(C)[C@@H]12 | 157 to 160 °C |
| O=C(NC(=O)c1c(F)cccc1F)Nc1cc(Cl)c(OC(F)(F)C(F)Cl)c(Cl)c1 (centres undefined) | 178 to 180 °C |
| Cc1ccc(S(=O)(=O)NC(=O)OCCc2ccc(-n3c(CCC(=O)c4ccccn4)nc4cc(C(F)(F)F)c(Cl)cc43)cc2)cc1 | 234 °C |
| COc1ccc(-c2ccc(C(=O)Nc3cc4ncc(CN5CCCCCC5)cc4cc3C)cc2)cc1 | 161 °C |
| COC(=O)c1ccccc1S(=O)(=O)Cc1c(O[C@H](Cn2ccnc2)c2ccccc2)ccc2c1CCCC2=O | 203 to 205 °C |
| CC(C)c1cc(C(C)C)c2ncn(/C=C/C(=O)O)c(=O)c2c1 | 181 to 182 °C |
| CC1(N)CCN(c2ncc3ncnc(Nc4ccc(F)c(Cl)c4)c3n2)CC1 | 188 to 190 °C |
| O[C@@H]1CNC[C@H]1Oc1cccc(Cl)c1 (relative stereo) | 128 to 129 °C |
| COc1ccc(C=C(C#N)c2ccccn2)cc1OC | 112 °C |
| CC(C)Oc1ccc(F)c(-c2nn(C(C)c3oc4ccccc4c(=O)c3-c3cccc(F)c3)c3ncnc(N)c23)c1 (centres undefined) | 198 to 201 °C |
| CCCc1ccc(C(=O)Nc2ccc(C(C)=O)cc2)cc1 | 174 to 176 °C |
| Nc1nc(CCCc2ccccc2)nc2nc(-c3ccco3)nn12 | 164 to 167 °C |
| COC(=O)c1oc(C(C)(C)C)cc1NC(=O)Nc1cccc(Cl)c1Cl | 195 to 197 °C |
| Cc1cc(C)nc(S(=O)(=O)Nc2c(Cl)ccc(C)c2Cl)n1 | 234 to 235 °C |
| O=C(C=Cc1c(-c2ccccc2)nn2ccccc12)N1CCCC[C@@H]1CCO | 145 to 146 °C |
| COC(=O)C1CC(C#N)(c2cccc3ccccc23)CCC1=O (centres undefined) | 166 to 168 °C |
| COc1ccc(SC(C)(Cc2ccccc2)C(=O)NO)cc1 (centres undefined) | 88 °C |
| CC(O)(CNC(=S)Nc1ccc(Br)cc1)C(=O)Nc1ccc([N+](=O)[O-])c(C(F)(F)F)c1 (centres undefined) | 192 to 195 °C |
| CC1CC(=O)C=C(c2ccc(OCC(=O)O)c(Cl)c2Cl)C1 (centres undefined) | 187 to 190 °C |
| CN(C)C(=S)C1(c2ccccn2)CCCS1 (centres undefined) | 100 °C |

| Compound | melting point |
| --- | --- |
| COC(=O)c1ccc(Cn2ncc3ccc(NC(=O)CC4CCCC4)cc32)c(OC)c1 | 195 to 198 °C |
| O=C(c1ccc(-c2ccc(Cl)cc2)o1)N1CCN(c2cccc(Br)c2)CC1 | 130 °C |
| CCCc1nc(C(=O)C(C)(C)C)c(C#N)[nH]1 | 176 to 178 °C |
| Cc1ccc(-c2nc(=O)c3ccccc3s2)n1C | 194 to 196 °C |
| CC(=O)n1nc(CBr)c(Oc2cc(Cl)cc(C#N)c2)c1C | 122 to 123 °C |
| O=C(NCC12CC3CC(CC(C3)C1)C2)c1cc(-c2ccc(F)cc2C(=O)O)ccc1Cl | 126 to 128 °C |
| O=C1C2CCCCN2C(=O)N1c1ccccc1 (centres undefined) | 186 to 187 °C |
| C=CCNC(=O)C(C#N)C(=O)C1CC1 (centres undefined) | 72 to 73.5 °C |
| Cc1csc2ncc(C(C)(O)CCc3ccccc3)n12 (centres undefined) | 131 to 133 °C |
| COc1cc(CCC(=O)C2=C(Cl)CCC2)cc(OS(=O)(=O)c2ccc(C)cc2)c1OC | 73 °C |
| COc1ccc(C(C)=O)cc1C(F)(F)F | 56 to 57 °C |
| CC(C)(C)OC(=O)N1CCN(c2cccc3c2cnn3S(=O)(=O)c2ccccc2)CC1 | 130 °C |
| CSc1ccnc(Oc2cc(C#N)cc(C#N)c2)n1 | 237 °C |
| CC(C)(C)c1cc(NC(=O)c2csc(-c3ccc([N+](=O)[O-])cc3)n2)cc(C(C)(C)C)c1O | 262 to 264 °C |
| NC(=O)c1[nH]c2ccc(Cl)cc2c1S(=O)(=O)c1cccc(Cl)c1 | 272 to 273 °C |
| CCCc1cc2c(cc1C(=O)c1ccc(C(O)=NO)cc1)C(C)(C)CCC2(C)C | 255 to 257 °C |
| Nc1ncc(C#Cc2ccc(Cl)cc2)c(N[C@H]2CC[C@H](O)CC2)n1 | 215 to 218 °C |
| Cc1cc2c(cc1C)SC(CCCN1CCN(c3ccc(F)cc3)CC1)C(=O)N2 (centres undefined) | 161 to 162 °C |
| CCOC(=O)c1cc2c(C)ccc(OCCO)c2[nH]1 | 166 to 167 °C |
| C#CCOc1ccc(C)cc1S(N)(=O)=O | 169 to 170 °C |
| CC(C)(C)C(=O)COc1ccc(Cl)cn1 | 68 to 69.5 °C |
| CN1CC=C(c2ccnc(C(=O)N(O)Cc3ccccc3)c2)CC1 | 135 to 155 °C |
| OCC(O)CN1CCN(c2ncccn2)CC1 (centres undefined) | 118 to 120 °C |
| CCCOc1c(OC)cc(C(=O)O)cc1[N+](=O)[O-] | 121 to 123 °C |
| Nc1nc(-c2cc(Cl)ccc2Cl)nc(N(CCO)CCO)n1 | 199 to 200 °C |

| Compound | melting point |
| --- | --- |
| COc1c(S(=O)(=O)Cl)ccc(Cl)c1C | 88 to 92 °C |
| COc1ccc2c(c1)C(=S)N(C)CC(CCCl)O2 (centres undefined) | 98 to 100 °C |
| O=[N+]([O-])c1ccc2c(c1)Sc1cc(I)ccc1N2 | > 250 °C |
| CCOCCn1c(CN2CCN(CC#N)CC2)nc2cccnc21 | 80.7 °C |
| Cc1ccc(CC2CCN(C(=O)C(=O)Nc3ccc4c(c3)OCC(=O)N4)CC2)cc1 | 228 to 231 °C |
| CC(=O)CNC(=O)c1cc2c(nc(C)n2C)c2c1CCC1(Cc3ccccc3C1)N2 | 222 to 223 °C |
| CC(C)(C(=O)O)n1c(=O)[nH]c2ccc(F)cc2c1=O | 249 to 253 °C |
| COc1ccc(Oc2ccc(C(=O)N(C3CCCCC3)C3CCCC3)cc2)cc1OC | 154 °C |
| COc1cc(C(C)=O)ccc1OCCCN1CCN(c2nn(C(=O)c3ccccc3)c3cccc(F)c23)CC1 | 138 to 140 °C |
| Oc1ncc(-c2cccc(F)c2)cn1 | 259 to 261 °C |
| CCn1ncnc1COc1nc2c(cc1C(C)(C)C)nnn2-c1ccccc1 | 161 to 163 °C |
| CC(=O)n1ncc2c(OCC3CO3)cccc21 (centres undefined) | 83 °C |
| Clc1ccc(-c2nn(-c3ccc(Br)cc3)cc2CCc2nnn[nH]2)cc1 | 164 to 166 °C |
| N#Cc1cc(F)c(NN)cc1F | 158 °C |
| CCCc1c(OCCCCCCCC(=O)NCCCCc2cccnc2)ccc(C(C)=O)c1O | 48 to 51 °C |
| Cc1cc2ccc(Cl)c(C)c2nc1-n1cncn1 | 147 to 148 °C |
| O=C(OCc1ccccn1)c1cccc(-n2cnc3cc(-c4ccccc4)ccc32)c1 | 149 to 150 °C |
| CC(=O)OCC(=O)C1(OC(C)=O)CCC2C3C=C(C)C4=CC(=O)CCC4(C)C3CCC21C (centres undefined) | 213 to 215 °C |
| CN(C)C=NS(=O)(=O)c1cc(C(=O)c2cc3c(c(Cl)c2Cl)OC(CO)C3)ccc1Cl (centres undefined) | 180 to 182 °C |
| C=CCOc1cccc2c1ONC(=O)C2 | 174 to 175 °C |
| C#Cc1ccc(-c2ccc(-c3ccc(C#C)cc3)n2-c2ccc(C)cc2)cc1 | 235 to 237 °C |
| Cc1noc(NS(=O)(=O)c2ccsc2C(=O)Oc2ccc3c(c2)OCO3)c1Cl | 189 to 191 °C |
| COc1ccc(S(=O)(=O)Nc2ccccc2NC(=O)c2ccccc2)cc1OC | 183 to 184 °C |
| CCCc1c(OC(=O)OCC)ccc2oc(Cc3ccc(OC)cc3)c(C)c12 | 51 to 53 °C |
| COCCOc1ccc(N)c([N+](=O)[O-])c1 | 89 to 90 °C |

| Compound | melting point |
| --- | --- |
| CC(=O)NC[C@H]1CN(c2ccc(N3CCC4(CC3)CC4(C#N)C#N)c(F)c2)C(=O)O1 | 188 to 190 °C |
| CC(=O)Nc1ccc(C)c2c1C(=O)CCC2 | 92 to 94 °C |
| CC(O)c1cc(F)ccc1Oc1nc2ccc(-n3cc(-c4ccccc4)nn3)cc2cc1Cc1ccccc1 (centres undefined) | 103 °C |
| C=CCOc1ccc(CC(=O)NCC(=O)O)cc1Cl | 115 to 119 °C |
| Cc1cc(-c2ccccc2O)nn1-c1ccccc1 | 225 to 229 °C |
| COc1ccc(OC)c(CNC(=O)n2cc(F)c(=O)[nH]c2=O)c1 | 185 °C |
| COC(=O)c1ccc(C(C)O)cc1 (single isomer, unassigned; (+)) | 52 to 53 °C |
| COc1ccc(-c2ccc3c(C(=O)c4ccn5c4C(C)(C)SC5c4cccnc4)c[nH]c3c2)cc1 (centres undefined) | 236 to 239 °C |
| Cc1c(-c2ccncc2)[nH]c2c1C(=O)CC(c1ccccc1)C2 (centres undefined) | 256 to 257 °C |
| O=C(C(c1ccccc1)n1cnc2[nH]ncc2c1=S)N1CCC(C2C=C(O)C=CN2)CC1 (centres undefined) | 138 to 142 °C |
| CC(C)c1ccc(NC(=O)Cn2cnc3[nH]c(=O)[nH]c(=O)c32)cc1 | 320 to 325 °C |
| CC(C=CC=C(C)CO)=CC=CC=C(C)C1OCC(C)(C)CO1 | 136 to 137 °C |
| O=C(Oc1ccc(/C=c2\[nH]c(=O)/c(=C/c3ccccc3)[nH]c2=O)nc1)c1ccncc1 | 262 to 264 °C |
| CS(=O)(=O)c1ccc(-c2ccc(C(F)F)n2-c2ccc(F)cc2)cc1 | 111 to 112 °C |
| COC(=O)C1=C(C)NC(c2ccccc2)=C(C(=O)O)C1c1ccc([N+](=O)[O-])cc1 (centres undefined) | 190 to 191 °C |
| CC(O)c1coc2cc(NS(C)(=O)=O)c(Oc3ccccc3)cc2c1=O (centres undefined) | 136 to 138 °C |
| O=[N+]([O-])c1cc(C(F)(F)F)ccc1-c1ccno1 | 62 to 63 °C |
| C=CS(=O)CCNC(=O)CCS(=O)(=O)CCCl (centres undefined) | 108 to 109 °C |
| CCSSCS(C)(=O)=O | 34.6 to 36.3 °C |
| COC1(C=CCOc2ccc3c(-c4ccc(F)cc4)c4c(cc3c2)C(=O)OC4)CCOCC1 | 144 to 148 °C |
| COC(=O)c1ccc(CC(C)NCC(O)c2cccc(C(F)(F)F)c2)cc1 (centres undefined) | 73 to 88 °C |
| O=C(CSc1nc2ccccc2s1)NC1(C(=O)O)Cc2ccc(-c3ccc(Cl)cc3)cc2C1 (centres undefined) | 205 to 207 °C |
| CCOCc1nc2c(N)nc3ccccc3c2n1CCCC(=O)OCC | 129 to 131 °C |
| Cn1cnc(COc2nc3c(cc2-c2ccsc2)nnn3-c2ccccc2F)n1 | 174 to 176 °C |
